Results reported in patent US12233164B2, “Drug delivery composition and method of fabrication” (DIGNITY HEALTH, priority 2017, dated 2025).

Columns and labels:
[1] = system: GL261 murine glioma cells; test: In vitro nanoparticle efficacy, CellTiter-Glo cell viability; format: cell-based; conditions: Mus musculus, 72 hours, read-out: IC50, growth inhibition
Description: Cell Culture GL261-LucNeo cells were generated by retroviral transduction of parent GL261 cells. The LucNeo construct (obtained from AndrewKung laboratory, Dana-Farber Cancer Institute) is described in Rubin et al.. Cells were maintained under normal adherent culture conditions supplemented with G-418 as a selection pressure. Cells were grown in T25 flasks in DMEM containing glucose, L-glutamine and 10% FBS at 37° C. and 5% CO2. 0.25% trypsin-EDTA was applied to collect cells, and a Cellometer mini (Nexcelom Bioscience, Lawrence, MA USA) was used to count cells prior to all in vitro and in vivo experiments.
In vitro Nanoparticle Efficacy GL261 cells were seeded in 96-well flat, white walled, clear bottom plates at a density of 3 k cells/well in 100 μl media and allowed to attach for 4 hours prior to adding treatments. Each plate was treated with 10 μl/well of 19 serial dilutions (1:2) ranging from 10 to 0 μM in PBS of either free drug or nanoparticles. After 72 hours, cell viability was assessed using CellTiter-Glo, and an IC50 value was calculated using GraphPad Prism (San Diego, CA USA) by a nonlinear fit of the log (inhibitor) vs. response function.

[2] = system: orthotopic GL261-LucNeo tumors; test: Treatment efficacy in mice bearing orthotopic GL261 tumors (bioluminescence tumor growth, survival); format: in vivo, C57BL/6 albino mice; conditions: free drug study: 10 mg/kg IP, days 11, 12, 18, 19, n=5
Description: Tumor induction Orthotopic GL261-LucNeo tumors were induced in C57BL/6 albino mice (Harlan Laboratories, Indianass, IN, USA) as previously reported. Briefly, mice were anesthetized with an intraperitoneal injection of ketamine/xylazine (100/10 mg/kg) and mounted in a stereotaxic frame (Kopf Instruments, Tujunga, CA, USA) on top of an infrared heating pad to maintain animal temperature. The animal's head was shaved and sterilized with three alternating passes each of betadine and ethanol. A 1 cm incision was made over midline, and a burr hole was drilled 2 mm lateral, 0.1 mm posterior of bregma. A hamiltion syringe (29 gauge needle) containing 75 k GL261-LucNeo cells in 2 μl DMEM was inserted into the hole to a depth of 2.8 mm and the cells were injected over 2 min. The needle was left in place for 1 min to reduce backflow before the wound was closed with staples. All animals received a subcutaneous (SQ) injection of Buprenorphine SR prior to surgery, and ibuprofen was provided in their water ad lib for 1 week for pain. […]
Tumor treatment Quisinostat-loaded nanoparticles were tested in vivo in mice bearing orthotopic GL261 tumors. […] Treatment efficacy was measured by tumor growth and median survival. Mice were monitored daily and euthanized at the sign of symptoms (lack of grooming, abnormal gait, hunched posture, etc.) or greater than 15% weight loss. […]

[3] = solubilized with hydroxy-propyl-β-cyclodextrin and/or mannitol; IP or SQ injection; cited from earlier work
[4] = Controlled release of quisinostat from dialysis cassette into PBS; format: physicochemical; conditions: 37° C., 3.5k MWCO dialysis cassette
Description: Controlled Release Quisinostat release from nanoparticles was determined using a protocol adapted from Wang et al.. Nanoparticles were diluted to 20 mg/ml in PBS (pH 7) and 400 μl was transferred to a 3.5 k MWCO Slide-A-Lyzer Dialysis cassette (Thermo Fisher Scientific, Waltham, MA USA) in triplicate. Each cassette was immersed in 2 l PBS (pH 7, replaced at each time point) at 37° C. with gentle stirring (100 rpm). At each time point, 30 μl nanoparticles was removed from the cassette and dissolved in 150 μl DMSO. 60 μl dissolved nanoparticles was added in triplicate to a clear, flat bottom, 96-well plate, and the amount of drug remaining was quantified by absorbance as described above. A free quisinostat control at the equivalent concentration was included to measure quisinostat movement across the membrane using the same protocol.

In the case of `Cn1cc(CNCC2CCN(c3ncc(C(=O)NO)cn3)CC2)c2ccccc21` [quisinostat, Quisinostat], the IC50 [1] is reported as 24 nM, the tumor doubling time ([2]; saline 2.4 days) is reported as 2.4 days and the median survival ([2]; saline 22 days) is reported as 19 days. The maximum tolerated dose [3] was 35-70 mg/kg/week and the “time to complete quisinostat release” value [4] was at most 4 h.
